Source: US9023814B2, “Glycomimetic compounds as anti-infectious against pathogens lectins” (priority 2010, dated 2015)

Assays:
LecA [1] = molecular target: T1, LecA (Pseudomonas aeruginosa, UniProt Q05097); assay: biochemical; assay type: binding
Description: Surface Plasmon Resonance (SPR).
Equivalent method, but performed in miniaturized channel on a galactose-containing chips in a more sophisticated apparatus (Biacore 3000) that allows for a precise determination of the IC50.
More particularly, SPR inhibition experiments were performed on a Biacore 3000 instrument at 25° C. Measurements were carried out on 2 channels with 2 immobilised sugars: α-L-fucose (channel 1), α-D-galactose (channel 2). Immobilization of sugars was performed at 25° C. using running buffer (HBS) at 5 μL/min. Immobilization on each channel (CM5 Chip) was performed independently as follows. First, channel was activated by injecting a fresh mixture of EDC/NHS (35 μL, 420 s). Then, a solution of strepatavidin (100 μg/mL in Na acetate pH 5 buffer) was injected (50 μL, 600 s). Remaining reactive species were quenched by injecting ethanolamine (1M, 35 μL, 420 s). Finally a solution of the desired biotinylated-polyacrylamide-sugar (Lectinity, 200 μg/mL) was coated onto the surface (50 μL, 600 s) through streptavidin-biotin interaction. This procedure led to 804 RU (fucoside) and 796 RU (galactoside) of immobilized sugars on channel 1 and 2 respectively. Inhibition experiments were performed with the galactosylated channel 2 and plots represent subtracted data (channel 2-channel 1).
LecA was injected using running buffer consisting of HEPES 10 mM, NaCl 150 mM, CaCl2 10 mM, Tween P20 0.005%, pH 7.4. Inhibition studies consisted in the injection (150 μL, 10 μL/min, dissociation: 120 s) of incubated (>1 h, r.t.) mixtures of LecA (5 μM) and various concentrations of inhibitor (2-fold cascade dilutions). For each inhibition assay, LecA (5 μM) without inhibitor was injected to observe the full adhesion of the lectin onto the sugar-coated surface (0% inhibition). The CM5 chip was fully regenerated by successive injections of D-Galactose (2×30 μL, 100 mM in running buffer).
Binding was measured as RU over time after blank subtraction, and data were then evaluated using the BIAevaluation Software, version 4.1. For IC50 evaluation, the response (Req-fitted) was considered as the amount of lectin bound to the sugar surface at equilibrium in the presence of a defined concentration of inhibitor. Inhibition curves were obtained by plotting the percentage of inhibition against the inhibitor concentration (on a logarithmic scale) by using Origin 7.0 software (OriginLab Corp.) and IC50 values were extracted from sigmoidal fit of the inhibition curve.

P. aeruginosa = assay: Mice model of lung infection, alveolar capillary barrier permeability (125I-albumin); assay type: in vivo; conditions: co-instillation into lungs with P. aeruginosa, 6 h after infection
Description: Mice were briefly anesthetized with inhaled sevoflurane. For each mouse, 50 l of a bacterial inoculum of 5×10^8 CFU/ml was instilled into the lungs through a gavage inserted into trachea via the oropharynx. The alveolar capillary barrier permeability was evaluated by measuring residual ^125I-albumin instilled intratracheally as an alveolar protein tracer in the lungs and its leakage and accumulation in the plasma aftert 6 h after infection. The intratracheal instillate was a mixture of 1 μCi of ^125I-labeled albumin and 5% bovine albumin together with the P. aeruginosa inoculate and different monosaccharides or glycocompounds. The total radioactivity in the instillate was measured. Fifty microliters of instillate was inoculated into the lungs of each anesthetized mouse. […] The blood was collected by carotid arterial puncture, and a sternotomy was performed to harvest and measure the radioactivity in the lungs, trachea, and stomach. The quantity of 125l-albumin that leaked into the circulation was calculated by multiplying the activity in a blood sample by the volume of blood.
Compound 14 has been compared with two monosaccharides: glucose and galactose, in animal models assays. […] For this, labelled albumin was […] was estimated. […]

LecA [2] = molecular target: T1, LecA; assay: Inhibition of Hemagglutination (HIA), LecA-induced agglutination of rabbit erythrocytes; assay type: cell-based; conditions: LecA 6 μg/mL, 25° C.
Description: Inhibition of Hemagglutination (IHA) (or Hemagglutination Inhibition Assays (HIA)).
The LecA lectin agglutinates red blood cells since they are covered by glycoconjugates. The glycomimetics inhibit this agglutination.
For each compound the minimum concentration able to perform inhibition has been evaluated. The method is not very quantitative but mimics natural system.
More particularly, hemagglutination inhibition assays were performed in U-shaped 96-well microtitre plates. Rabbit erythrocytes were bought from Biomerieux and used without further washing. The erythrocytes were diluted to a 4% solution in NaCl (150 mM). Lectin solutions of 2 mg/mL were prepared in Tris/HCl 20 mM, NaCl 100 mM and CaCl2 100 μM. The hemagglutination unit (HU) was first obtained by the addition of 25 μL of the 4% erythrocyte solution to 25 μL aliquots of sequential (two-fold) lectin dilutions. The mixture was incubated at 25° C. for 60 minutes. The HU was measured as the minimum lectin concentration required to […] hemagglutination. For the following lectin-inhibition assays, lectin concentrations of four times that of the hemagglutination unit were used, i.e. a concentration of 6 μg/mL for LecA. Subsequent assays were then carried out by the addition of 12.5 μL lectin solution (at the required concentration) to 25 μL of sequential dilutions of glycoclusters, monomer molecules and controls. These solutions were then incubated at 25° C. for 2 h then 12.5 μL of 4% erythrocyte solution was added followed by an additional incubation at 25° C. for 30 minutes. The minimum inhibitory concentration for each molecule was determined by simple eye detection.
Compounds 5, 10, 14, 19, 21, 23, 25, 27, 29 and 31 were evaluated towards LecA according to Method 1.

LecA [3] = molecular target: T1, LecA; assay: biochemical; assay type: binding; remark: listed apart in the source
Description: Isothermal Titration Microcalorimetry (ITC).
The method allows for a direct measurement of the affinity between the glycomimetics and the LecA lectin. The dissociation constant is measured.
More particularly, recombinant lyophilized LecA was dissolved in buffer (0.1 M TrisHCl, 6 μM CaCl2, pH 7.5) and degassed (see Supp. Info. for concentration details). Protein concentration was checked by measurement of optical density using a theoretical molar extinction coefficient of 28000. Carbohydrate ligands were dissolved directly into the same buffer, degassed, and placed in the injection syringe. ITC was performed with a VP-ITC MicroCalorimeter from MicroCal Incorporated. PA-IL was placed into the 1.4478-mL sample cell, at 25° C. Titration was performed with 10-μL injections of carbohydrate ligands every 300 s. Data were fitted with MicroCal Origin 7 software, according to standard procedures. Fitted data yielded the stoichiometry (n), the association constant (Ka) and the enthalpy of binding (ΔH).
Other thermodynamic parameters (i.e. changes in free energy, ΔG, and entropy, ΔS) were calculated from the equation: ΔG=ΔH TΔS=−RT Inka where T is the absolute temperature and R=8.314 J·mol^−1·K^−1. Two or three independent titrations were performed for each ligand tested.

LecA [4] = molecular target: T1, LecA; assay: Enzyme-Linked Lectin Assay (ELLA), biotinylated LecA binding to polymeric galactose
Description: Enzyme-Linked Lectin Assay (ELLA) Experiments 96-well plates are covered with polymer presenting galactose (which is the monosaccharide that is bound by LecA). The lectin labelled with biotin is added in presence of competing glycomimetics. IC50 can be measured.
More particularly, ELLA experiments were conducted using 96-well microtitre plates (Nunc Maxisorb) coated with polymeric β-D-galactose (5 μg/mL; Lectinity Holding, Inc., Moscow) diluted in carbonate buffer, pH 9.6 (100 μL) for 1 h at 37° C. After blocking at 37° C. for 1 h with 100 μL per well of 3% (w/v) BSA in PBS, plates were incubated at 37° C. for 1 h with 100 μL of biotinylated LecA at 0.1 μg/mL in the presence of serial dilutions of inhibitors. After washing with T-PBS (PBS containing 0.05% Tween), 100 μL of streptavidinperoxidase conjugate (dilution 1:10000; Boehringer-Mannheim) was added and left for 1 h at 37° C. The color was developed using 100 μL per well of 0.05 M phosphate/citrate buffer containing O-phenylenediamine dihydrochloride (0.4 mg/mL) and urea hydrogen peroxide (0.4 mg/mL) (Sigma-Aldrich). The reaction was stopped by the addition of 50 μL of 30% H2SO4. Absorbance was read at 490 nm using a microtitre plate reader (Bio-Rad; model 680).

T1 sequence (Q05097 whole entry): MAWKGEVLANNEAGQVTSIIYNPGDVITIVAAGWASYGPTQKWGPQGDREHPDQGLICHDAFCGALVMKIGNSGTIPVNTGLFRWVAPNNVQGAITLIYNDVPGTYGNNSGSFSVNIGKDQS

## O=C(Cn1cc(CO)nn1)Nc1ccc(O[C@@H]2O[C@H](CO)[C@H](O)[C@H](O)[C@H]2O)cc1 [Comp. 14, 4-[(1,2,3-Triazol-4-hydroxymethyl-1-yl)-acetamido]phenyl β-D-galactopyranoside]
LecA [1]
  IC50: 2.6 µM
P. aeruginosa
  reduction of lung damages (alveolar barrier permeability) versus bacteria without sugar: approximately 50%
LecA [2]
  inhibiting concentrations of lectin-induced red cells agglutination (minimum inhibitory concentration): 250 µM
LecA [3]
  Kd: 5.8 µM
LecA [4]
  IC50: 46 µM
